In US11708391B2, “Rapaglutins, novel inhibitors of GLUT and use thereof” (The Johns Hopkins University, priority 2016, dated 2023):
Where two headings read alike, the source gives them in different places.

Key:
glucose transporters [1] = details: A549; read-out: IC50 (cell line); cited from earlier work
glucose transporters [2] = details: DU145; read-out: IC50 (cell line); cited from earlier work
glucose transporters [3] = experiment: 2-deoxy-D-[3H] glucose uptake in A549 cells; format: cell-based, human; details: A549 cells
Experimental: FIGS. 2A-2D. Inhibition of Glucose Transport by A18 and E11. (a) Inhibition of 3-O-methyl¬D-[3H] glucose uptake in A549 cells by A18. (b) Inhibition of 3-O-methyl-D-[3H] glucose uptake in A549 cells by E11. (c) Inhibition of 2-deoxy-D-[3H] glucose uptake in A549 […] cells by A18. (d) Inhibition of 2-deoxy-D-[3H] glucose uptake in A549 cells by E11.
FIGS. 16A-16B. Inhibition of Glucose Transport by A18 and E11. Cytochalasin B (10 μM), A18 (3 μM), E11 (3 μM) and DMSO control were used to treated A549 cells for 10 min (a) or 1 min (b), then glucose uptake in the treated cells was measured at 1, 3, 10 and 30 min after the addition of 2-dexoy-D-[^3H] glucose.
Direct action on glucose transporters was measured by monitoring uptake of 3H-labeled 3-O-methylglucose, which is transported by glucose transporters but not metabolized further, allowing the assessment of initial rate of glucose uptake. […] Initial uptake can also be assessed by measuring the uptake of 3H-labeled 2-deoxy-D-glucose, which gets into the cell through glucose transporters and is phosphorylated by hexokinase but cannot be metabolized further due to the lack of oxygen at the second position.

glucose transporters [4] = details: HL-60; read-out: IC50 (cell line); cited from earlier work
glucose transporters [5] = details: CHO-K1; read-out: IC50 (cell line); cited from earlier work
glucose transporters [6] = details: SW620; read-out: IC50 (cell line); cited from earlier work
glucose transporters [7] = details: LNCaP; read-out: IC50 (cell line); cited from earlier work
glucose transporters [8] = details: RCC4; read-out: IC50 (cell line); cited from earlier work

For `O=C(Oc1cccc(F)c1OC(=O)c1cccc(O)c1)c1cccc(O)c1` [WZB117], the IC50 (glucose transporters [1]) is listed as roughly 500 nM.
For `CC(=O)CC(=O)Nc1ccc(Cl)c(C(F)(F)F)c1` [Fasentin], the IC50 (glucose transporters [2]) is listed as roughly 80000 nM.
In the case of `CCC(C)(C)C(=O)C(=O)N1CCCC[C@H]1C(=O)O[C@H](CCc1ccc(OC)c(OC)c1)c1cccc(OCC(=O)O)c1` [SLF, reference compound], the “antagonism of inhibitory effects of A18 or E11 on 2-deoxy-D-glucose uptake by FKBP ligands” value (glucose transporters [3]) is reported as “significantly impaired the inhibitory activity of E11”.
For `O=c1c(-c2ccc(O)cc2)coc2cc(O)cc(O)c12` [Genistein], the IC50 (glucose transporters [4]) is given as roughly 12000 nM.
In the case of `CCOC(=O)[C@@]12CCCCC/C=C\1N(C(=O)c1cccc3ccccc13)C(=O)[C@H]2CC(=O)N1CCN(C(=O)c2ccco2)CC1` [Compound 11], the IC50 (glucose transporters [5]) is given as 2000 nM.
For `O=C(CCc1ccc(O)cc1)c1c(O)cc(O)cc1O` [Phloretin], the IC50 (glucose transporters [6]) is listed as greater than 10000 nM.
For `CC(CN1C(=O)S/C(=C/c2ccc(O)c(C(F)(F)F)c2)C1=O)(CC(F)(F)F)CC(F)(F)F` [Cpd30], the IC50 (glucose transporters [7]) is listed as 2000 nM.
For `CC(C)(C)c1ccc(S(=O)(=O)NCc2ccc(C(=O)Nc3cccnc3)cc2)cc1` [STF-31], the IC50 (glucose transporters [8]) is given as roughly 1200 nM.
